Test results published in patent US11708348B2, “Protease inhibitors for treatment of coronavirus infections” (The Scripps Research Institute, priority 2021, dated 2023).
Like-named read-outs stand apart in the source and are kept apart here.

Test system: SARS-CoV-2 strain USA-WA1/2020
Test: microbe, parasite or virus in culture
Assay type: cell-based
Conditions: Severe acute respiratory syndrome coronavirus 2, HeLa-ACE2, 24 h, HeLa-ACE2 cells, SARS-CoV-2 infection, 24 h, read-out: EC50, uM (Hela)

Row | Compound | EC50 (class symbols) [µM] | EC50 (bound printed in cell) [µM]
1 | CC[C@@H](O)C(=O)N1[C@H](C(=O)N[C@@H](C[C@@H]2CCNC2=O)C(=O)COC(F)(F)F)C[C@@H]2CCCC[C@@H]21 [Compound 373, (2S,3aS,7aS)-1-((R)-2-hydroxybutanoyl)-N-((S)-3-oxo-1-((S)-2-oxopyrrolidin-3-yl)-4-(trifluoro-methoxy)butan-2-yl)octahydro-1H-indole-2-carboxamide] | 0.2 to 0.5 | –
2 | CC[C@@H](O)C(=O)N1[C@H](C(=O)N[C@@H](C[C@@H]2CCNC2=O)C(=O)COC(F)(F)F)C[C@@H]2CCC[C@@H]21 [Compound 374, (2S,3aS,6aS)-1-((R)-2-hydroxybutanoyl)-N-((S)-3-oxo-1-((S)-2-oxopyrrolidin-3-yl)-4-(trifluoromethoxy)butan-2-yl)octahydrocyclo-penta[b]pyrrole-2-carboxamide] | 0.5 to 1 | –
3 | CC[C@@H](O)C(=O)N[C@H](CC1(C)CC1)C(=O)N[C@@H](C[C@@H]1CCNC1=O)C(=O)COC(F)(F)F [Compound 375, (R)-2-hydroxy-N-((R)-3-(l-methylcyclopropyl)-1-oxo-1-(((S)-3-oxo-l-((S)-2-oxopyrrolidin-3-yl)-4-(trifluoromethoxy)butan-2-yl)amino)propan-2-yl)butanamide] | 0.05 to 0.2 | –
4 | CC[C@@H](O)C(=O)N[C@@H](CC1(C)CC1)C(=O)N[C@@H](C[C@@H]1CCNC1=O)C(=O)COC(F)(F)F [Compound 376, (R)-2-hydroxy-N-((S)-3-(1-methylcyclopropyl)-1-oxo-1-(((S)-3-oxo-l-((S)-2-oxopyrrolidin-3-yl)-4-(trifluoromethoxy)butan-2-yl)amino)propan-2-yl)butanamide] | – | > 1
5 | CC[C@@H](O)C(=O)N1C[C@@H]2CCC[C@@H]2[C@H]1C(=O)N[C@@H](C[C@@H]1CCNC1=O)C(=O)COC(F)(F)F [Compound 377, (1S,3aR,6aS)-2-((R)-2-hydroxybutanoyl)-N-((S)-3-oxo-1-((S)-2-oxopyrrolidin-3-yl)-4-(trifluoromethoxy)butan-2-yl)octahydrocyclo-penta[c]pyrrole-1-carboxamide] | 0.05 to 0.2 | –
6 | CCC[C@@H](O)C(=O)N1C[C@H]2[C@@H]([C@H]1C(=O)N[C@@H](C[C@@H]1CCNC1=O)C(=O)COC(F)(F)F)C2(C)C [Compound 378, (1R,2S,5S)-3-((R)-2-hydroxypentanoyl)-6,6-dimethyl-N-((S)-3-oxo-1-((S)-2-oxopyrrolidin-3-yl)-4-(trifluoromethoxy)butan-2-yl)-3-azabicyclo[3.1.0]-hexane-2-carboxamide] | < 0.05 | –
7 | CC[C@@H](C)[C@@H](O)C(=O)N1C[C@@H]2CCC[C@@H]2[C@H]1C(=O)N[C@@H](C[C@@H]1CCNC1=O)C(=O)COC(F)(F)F [Compound 379, (1S,3aR,6aS)-2-((2R,3R)-2-hydroxy-3-methylpentanoyl)-N-((S)-3-oxo-1-((S)-2-oxopyrrolidin-3-yl)-4-(trifluoromethoxy)butan-2-yl)octahydrocyclo-penta[c]pyrrole-1-carboxamide] | < 0.05 | –
8 | CC[C@@H](C)[C@@H](O)C(=O)N1CC2(CC2)C[C@H]1C(=O)N[C@@H](C[C@@H]1CCNC1=O)C(=O)COC(F)(F)F [Compound 380, (S)-5-((2R,3R)-2-hydroxy-3-methylpentanoyl)-N-((S)-3-oxo-1-((S)-2-oxopyrrolidin-3-yl)-4-(trifluoromethoxy)butan-2-yl)-5-azaspiro[2.4]-heptane-6-carboxamide] | 0.05 to 0.2 | –
9 | CO[C@H](CC(C)C)C(=O)N1CC2(CC2)C[C@H]1C(=O)N[C@@H](C[C@@H]1CCNC1=O)C(=O)COC(F)(F)F [Compound 381, (S)-5-((R)-2-methoxy-4-methylpentanoyl)-N-((S)-3-oxo-1-((S)-2-oxopyrrolidin-3-yl)-4-(trifluoromethoxy)butan-2-yl)-5-azaspiro[2.4]heptane-6-carboxamide] | < 0.05 | –
10 | COc1ccccc1[C@@H](O)C(=O)N1C[C@H]2[C@@H]([C@H]1C(=O)N[C@@H](C[C@@H]1CCNC1=O)C(=O)COC(F)(F)F)C2(C)C [Compound 382, (1R,2S,5S)-3-((R)-2-hydroxy-2-(2-methoxyphenyl)acetyl)-6,6-dimethyl-N-((S)-3-oxo-1-((S)-2-oxopyrrolidin-3-yl)-4-(trifluoromethoxy)butan-2-yl)-3-azabicyclo-[3.1.0]hexane-2-carboxamide] | < 0.05 | –
11 | Cn1cncc1C(O)C(=O)N1CC2(CC2)C[C@H]1C(=O)N[C@@H](C[C@@H]1CCNC1=O)C(=O)COC(F)(F)F (stereo partly drawn) [Compound 383, (6S)-5-(2-hydroxy-2-(1-methyl-1H-imidazol-5-yl)acetyl)-N-((S)-3-oxo-1-((S)-2-oxopyrrolidin-3-yl)-4-(trifluoromethoxy)butan-2-yl)-5-azaspiro[2.4]heptane-6-carboxamide] | – | > 1
12 | CC(C)C[C@H](NC(=O)[C@H](O)C(F)(F)F)C(=O)N[C@@H](C[C@@H]1CCNC1=O)C(=O)COC(F)(F)F [Compound 384, (S)-4-methyl-N-((S)-3-oxo-1-((S)-2-oxopyrrolidin-3-yl)-4-(trifluoromethoxy)butan-2-yl)-2-((S)-3,3,3-trifluoro-2-hydroxypropanamido)-pentanamide] | 0.05 to 0.2 | –
13 | O=C1NCC[C@H]1C[C@H](NC(=O)[C@@H]1CC2(CC2)CN1C(=O)[C@H](O)C(F)(F)F)C(=O)COC(F)(F)F [Compound 385, (S)-N-((S)-3-oxo-1-((S)-2-oxopyrrolidin-3-yl)-4-(trifluoromethoxy)butan-2-yl)-5-((S)-3,3,3-trifluoro-2-hydroxypropanoyl)-5-azaspiro[2.4]heptane-6-carboxamide] | 0.05 to 0.2 | –
14 | CC1(C)[C@@H]2[C@@H](C(=O)N[C@@H](C[C@@H]3CCNC3=O)C(=O)COC(F)(F)F)N(C(=O)[C@H](O)C(F)(F)F)C[C@@H]21 [Compound 386, (1R,2S,5S)-6,6-dimethyl-N-((S)-3-oxo-1-((S)-2-oxopyrrolidin-3-yl)-4-(trifluoromethoxy)butan-2-yl)-3-((S)-3,3,3-trifluoro-2-hydroxypropanoyl)-3-azabicyclo[3.1.0]-hexane-2-carboxamide] | 0.05 to 0.2 | –
15 | O=C1NCC[C@H]1C[C@H](NC(=O)[C@@H]1CC2(CC2)CN1C(=O)[C@@H](O)C(F)(F)F)C(=O)COC(F)(F)F [Compound 387, (S)-N-((S)-3-oxo-1-((S)-2-oxopyrrolidin-3-yl)-4-(trifluoromethoxy)butan-2-yl)-5-((R)-3,3,3-trifluoro-2-hydroxypropanoyl)-5-azaspiro[2.4]-heptane-6-carboxamide] | 0.05 to 0.2 | –
16 | O=C1NCC[C@H]1C[C@H](NC(=O)[C@@H]1CC2(CC2)CN1C(=O)C(O)C1CCS(=O)(=O)CC1)C(=O)COC(F)(F)F (stereo partly drawn) [Compound 388, (6S)-5-(2-(l,l-dioxidotetrahydro-2H-thiopyran-4-yl)-2-hydroxyacetyl)-N-((S)-3-oxo-1-((S)-2-oxopyrrolidin-3-yl)-4-(trifluoromethoxy)butan-2-yl)-5-azaspiro[2.4]heptane-6-carboxamide] | – | > 1
17 | O=C1NCC[C@H]1C[C@H](NC(=O)[C@@H]1CC2(CC2)CN1C(=O)C(O)CC(C(F)(F)F)C(F)(F)F)C(=O)COC(F)(F)F (stereo partly drawn) [Compound 389, (6S)-N-((S)-3-oxo-1-((S)-2-oxopyrrolidin-3-yl)-4-(trifluoromethoxy)butan-2-yl)-5-(5,5,5-trifluoro-2-hydroxy-4-(trifluoromethyl)-pentanoyl)-5-azaspiro[2.4]heptane-6-carboxamide] | < 0.05 | –
